Test system: HL-60
Assay: Antiproliferative activity against human HL60 cells assessed as growth inhibition at 10 uM after 48 hrs by SRB assay
Type: functional
Details: HL-60, 48 h, read-out: GI

| Structure (SMILES) | inhibition of growth at 10 µM [%] |
| --- | --- |
| Clc1ccc(Nc2nc3c(N4CCCC4)ncnc3s2)cc1 | 41 |
| c1ccc(Nc2nc3c(N4CCCCC4)ncnc3s2)cc1 | 22 |
| c1ccc(Nc2nc3c(N4CCC(N5CCCCC5)CC4)ncnc3s2)cc1 | 39 |
| O=C(Nc1nc2c(Cl)ncnc2s1)c1ccccc1 | 21 |
| COc1ccc(Nc2nc3c(Cl)ncnc3s2)cc1 | 31 |
| Clc1ccc(Nc2nc3c(Cl)ncnc3s2)cc1 | 18 |
| CCN(CC)c1ncnc2sc(Nc3ccccc3)nc12 | 31 |
| Clc1ncnc2sc(Nc3ccccc3)nc12 | 21 |
| CN1CCN(c2ncnc3sc(Nc4ccc(Cl)cc4)nc23)CC1 | 20 |
| CN(C)c1ncnc2sc(Nc3ccccc3)nc12 | 28 |
| CN(C)c1ncnc2sc(Nc3ccc(Cl)cc3)nc12 | 39 |
| CN1CCN(c2ncnc3sc(Nc4ccccc4)nc23)CC1 | 12 |
| Clc1ccc(Nc2nc3c(N4CCOCC4)ncnc3s2)cc1 | 33 |
| CCN1CCN(c2ncnc3sc(Nc4ccccc4)nc23)CC1 | 24 |
| Clc1ccc(Nc2nc3c(N4CCCCC4)ncnc3s2)cc1 | 21 |
| c1ccc(Nc2nc3c(N4CCNCC4)ncnc3s2)cc1 | 39 |

Test system: A549
Assay: Antiproliferative activity against human A549 cells assessed as growth inhibition at 10 uM after 48 hrs by SRB assay
Type: functional
Details: A549, 48 h, read-out: GI

| Structure (SMILES) | inhibition of growth at 10 µM [%] |
| --- | --- |
| Clc1ccc(Nc2nc3c(N4CCCC4)ncnc3s2)cc1 | 26 |
| c1ccc(Nc2nc3c(N4CCCCC4)ncnc3s2)cc1 | 54 |
| c1ccc(Nc2nc3c(N4CCC(N5CCCCC5)CC4)ncnc3s2)cc1 | 19 |
| O=C(Nc1nc2c(Cl)ncnc2s1)c1ccccc1 | 29 |
| COc1ccc(Nc2nc3c(Cl)ncnc3s2)cc1 | 0 |
| Clc1ccc(Nc2nc3c(Cl)ncnc3s2)cc1 | 46 |
| CCN(CC)c1ncnc2sc(Nc3ccccc3)nc12 | 48 |
| Clc1ncnc2sc(Nc3ccccc3)nc12 | 3 |
| CN1CCN(c2ncnc3sc(Nc4ccc(Cl)cc4)nc23)CC1 | 18 |
| CN(C)c1ncnc2sc(Nc3ccccc3)nc12 | 28 |
| CN(C)c1ncnc2sc(Nc3ccc(Cl)cc3)nc12 | 23 |
| CN1CCN(c2ncnc3sc(Nc4ccccc4)nc23)CC1 | 19 |
| Clc1ccc(Nc2nc3c(N4CCOCC4)ncnc3s2)cc1 | 24 |
| CCN1CCN(c2ncnc3sc(Nc4ccccc4)nc23)CC1 | 25 |
| Clc1ccc(Nc2nc3c(N4CCCCC4)ncnc3s2)cc1 | 57 |
| c1ccc(Nc2nc3c(N4CCNCC4)ncnc3s2)cc1 | 19 |

Test system: not listed separately
Assay: Antiproliferative activity against human MIAPaCa2 cells assessed as growth inhibition at 10 uM after 48 hrs by SRB assay
Type: functional
Details: MIA PaCa-2, 48 h, read-out: GI

| Structure (SMILES) | inhibition of growth at 10 µM [%] |
| --- | --- |
| Clc1ccc(Nc2nc3c(N4CCCC4)ncnc3s2)cc1 | 37 |
| c1ccc(Nc2nc3c(N4CCCCC4)ncnc3s2)cc1 | 17 |
| c1ccc(Nc2nc3c(N4CCC(N5CCCCC5)CC4)ncnc3s2)cc1 | 23 |
| O=C(Nc1nc2c(Cl)ncnc2s1)c1ccccc1 | 15 |
| COc1ccc(Nc2nc3c(Cl)ncnc3s2)cc1 | 0 |
| Clc1ccc(Nc2nc3c(Cl)ncnc3s2)cc1 | 10 |
| CCN(CC)c1ncnc2sc(Nc3ccccc3)nc12 | 9 |
| Clc1ncnc2sc(Nc3ccccc3)nc12 | 4 |
| CN1CCN(c2ncnc3sc(Nc4ccc(Cl)cc4)nc23)CC1 | 5 |
| CN(C)c1ncnc2sc(Nc3ccccc3)nc12 | 9 |
| CN(C)c1ncnc2sc(Nc3ccc(Cl)cc3)nc12 | 28 |
| CN1CCN(c2ncnc3sc(Nc4ccccc4)nc23)CC1 | 10 |
| Clc1ccc(Nc2nc3c(N4CCOCC4)ncnc3s2)cc1 | 21 |
| CCN1CCN(c2ncnc3sc(Nc4ccccc4)nc23)CC1 | 9 |
| Clc1ccc(Nc2nc3c(N4CCCCC4)ncnc3s2)cc1 | 1 |
| c1ccc(Nc2nc3c(N4CCNCC4)ncnc3s2)cc1 | 30 |

Test system: not listed separately
Assay: Antiproliferative activity against human NCI-H322 cells assessed as growth inhibition at 10 uM after 48 hrs by SRB assay
Type: functional
Details: NCI-H322, 48 h, read-out: GI

| Structure (SMILES) | inhibition of growth at 10 µM [%] |
| --- | --- |
| Clc1ccc(Nc2nc3c(N4CCCC4)ncnc3s2)cc1 | 27 |
| c1ccc(Nc2nc3c(N4CCCCC4)ncnc3s2)cc1 | 41 |
| c1ccc(Nc2nc3c(N4CCC(N5CCCCC5)CC4)ncnc3s2)cc1 | 30 |
| O=C(Nc1nc2c(Cl)ncnc2s1)c1ccccc1 | 37 |
| COc1ccc(Nc2nc3c(Cl)ncnc3s2)cc1 | 25 |
| Clc1ccc(Nc2nc3c(Cl)ncnc3s2)cc1 | 47 |
| CCN(CC)c1ncnc2sc(Nc3ccccc3)nc12 | 39 |
| Clc1ncnc2sc(Nc3ccccc3)nc12 | 0 |
| CN1CCN(c2ncnc3sc(Nc4ccc(Cl)cc4)nc23)CC1 | 10 |
| CN(C)c1ncnc2sc(Nc3ccccc3)nc12 | 18 |
| CN(C)c1ncnc2sc(Nc3ccc(Cl)cc3)nc12 | 6 |
| CN1CCN(c2ncnc3sc(Nc4ccccc4)nc23)CC1 | 39 |
| Clc1ccc(Nc2nc3c(N4CCOCC4)ncnc3s2)cc1 | 42 |
| CCN1CCN(c2ncnc3sc(Nc4ccccc4)nc23)CC1 | 27 |
| Clc1ccc(Nc2nc3c(N4CCCCC4)ncnc3s2)cc1 | 63 |
| c1ccc(Nc2nc3c(N4CCNCC4)ncnc3s2)cc1 | 35 |

Test system: T98G
Assay: Antiproliferative activity against human T98G cells assessed as growth inhibition at 10 uM after 48 hrs by SRB assay
Type: functional
Details: read-out: GI

| Structure (SMILES) | inhibition of growth at 10 µM [%] |
| --- | --- |
| Clc1ccc(Nc2nc3c(N4CCCC4)ncnc3s2)cc1 | 6 |
| c1ccc(Nc2nc3c(N4CCCCC4)ncnc3s2)cc1 | 42 |
| c1ccc(Nc2nc3c(N4CCC(N5CCCCC5)CC4)ncnc3s2)cc1 | 13 |
| O=C(Nc1nc2c(Cl)ncnc2s1)c1ccccc1 | 23 |
| COc1ccc(Nc2nc3c(Cl)ncnc3s2)cc1 | 4 |
| Clc1ccc(Nc2nc3c(Cl)ncnc3s2)cc1 | 0 |
| CCN(CC)c1ncnc2sc(Nc3ccccc3)nc12 | 49 |
| Clc1ncnc2sc(Nc3ccccc3)nc12 | 1 |
| CN1CCN(c2ncnc3sc(Nc4ccc(Cl)cc4)nc23)CC1 | 20 |
| CN(C)c1ncnc2sc(Nc3ccccc3)nc12 | 45 |
| CN(C)c1ncnc2sc(Nc3ccc(Cl)cc3)nc12 | 23 |
| CN1CCN(c2ncnc3sc(Nc4ccccc4)nc23)CC1 | 36 |
| Clc1ccc(Nc2nc3c(N4CCOCC4)ncnc3s2)cc1 | 22 |
| CCN1CCN(c2ncnc3sc(Nc4ccccc4)nc23)CC1 | 19 |
| Clc1ccc(Nc2nc3c(N4CCCCC4)ncnc3s2)cc1 | 45 |
| c1ccc(Nc2nc3c(N4CCNCC4)ncnc3s2)cc1 | 12 |

Test system: PC-3
Assay: Antiproliferative activity against human PC3 cells assessed as growth inhibition at 10 uM after 48 hrs by SRB assay
Type: functional
Details: PC-3, 48 h, read-out: GI

| Structure (SMILES) | inhibition of growth at 10 µM [%] |
| --- | --- |
| Clc1ccc(Nc2nc3c(N4CCCC4)ncnc3s2)cc1 | 31 |
| c1ccc(Nc2nc3c(N4CCCCC4)ncnc3s2)cc1 | 2 |
| c1ccc(Nc2nc3c(N4CCC(N5CCCCC5)CC4)ncnc3s2)cc1 | 34 |
| O=C(Nc1nc2c(Cl)ncnc2s1)c1ccccc1 | 21 |
| COc1ccc(Nc2nc3c(Cl)ncnc3s2)cc1 | 26 |
| Clc1ccc(Nc2nc3c(Cl)ncnc3s2)cc1 | 18 |
| CCN(CC)c1ncnc2sc(Nc3ccccc3)nc12 | 19 |
| Clc1ncnc2sc(Nc3ccccc3)nc12 | 20 |
| CN1CCN(c2ncnc3sc(Nc4ccc(Cl)cc4)nc23)CC1 | 18 |
| CN(C)c1ncnc2sc(Nc3ccccc3)nc12 | 36 |
| CN(C)c1ncnc2sc(Nc3ccc(Cl)cc3)nc12 | 28 |
| CN1CCN(c2ncnc3sc(Nc4ccccc4)nc23)CC1 | 29 |
| Clc1ccc(Nc2nc3c(N4CCOCC4)ncnc3s2)cc1 | 39 |
| CCN1CCN(c2ncnc3sc(Nc4ccccc4)nc23)CC1 | 19 |
| Clc1ccc(Nc2nc3c(N4CCCCC4)ncnc3s2)cc1 | 2 |
| c1ccc(Nc2nc3c(N4CCNCC4)ncnc3s2)cc1 | 35 |

Test system: T47D
Assay: Antiproliferative activity against human T47D cells assessed as growth inhibition at 10 uM after 48 hrs by SRB assay
Type: functional
Details: read-out: GI

| Structure (SMILES) | inhibition of growth at 10 µM [%] |
| --- | --- |
| Clc1ccc(Nc2nc3c(N4CCCC4)ncnc3s2)cc1 | 38 |
| c1ccc(Nc2nc3c(N4CCCCC4)ncnc3s2)cc1 | 31 |
| c1ccc(Nc2nc3c(N4CCC(N5CCCCC5)CC4)ncnc3s2)cc1 | 21 |
| O=C(Nc1nc2c(Cl)ncnc2s1)c1ccccc1 | 32 |
| COc1ccc(Nc2nc3c(Cl)ncnc3s2)cc1 | 19 |
| Clc1ccc(Nc2nc3c(Cl)ncnc3s2)cc1 | 9 |
| CCN(CC)c1ncnc2sc(Nc3ccccc3)nc12 | 27 |
| Clc1ncnc2sc(Nc3ccccc3)nc12 | 22 |
| CN1CCN(c2ncnc3sc(Nc4ccc(Cl)cc4)nc23)CC1 | 21 |
| CN(C)c1ncnc2sc(Nc3ccccc3)nc12 | 31 |
| CN(C)c1ncnc2sc(Nc3ccc(Cl)cc3)nc12 | 21 |
| CN1CCN(c2ncnc3sc(Nc4ccccc4)nc23)CC1 | 13 |
| Clc1ccc(Nc2nc3c(N4CCOCC4)ncnc3s2)cc1 | 40 |
| CCN1CCN(c2ncnc3sc(Nc4ccccc4)nc23)CC1 | 29 |
| Clc1ccc(Nc2nc3c(N4CCCCC4)ncnc3s2)cc1 | 8 |
| c1ccc(Nc2nc3c(N4CCNCC4)ncnc3s2)cc1 | 21 |

Test system: A-431
Assay: Antiproliferative activity against human A431 cells assessed as growth inhibition at 10 uM after 48 hrs by SRB assay
Type: functional
Details: A-431, 48 h, read-out: GI

| Structure (SMILES) | inhibition of growth at 10 µM [%] |
| --- | --- |
| Clc1ccc(Nc2nc3c(N4CCCC4)ncnc3s2)cc1 | 17 |
| c1ccc(Nc2nc3c(N4CCCCC4)ncnc3s2)cc1 | 22 |
| c1ccc(Nc2nc3c(N4CCC(N5CCCCC5)CC4)ncnc3s2)cc1 | 10 |
| O=C(Nc1nc2c(Cl)ncnc2s1)c1ccccc1 | 0 |
| COc1ccc(Nc2nc3c(Cl)ncnc3s2)cc1 | 9 |
| Clc1ccc(Nc2nc3c(Cl)ncnc3s2)cc1 | 0 |
| CCN(CC)c1ncnc2sc(Nc3ccccc3)nc12 | 12 |
| Clc1ncnc2sc(Nc3ccccc3)nc12 | 1 |
| CN1CCN(c2ncnc3sc(Nc4ccc(Cl)cc4)nc23)CC1 | 21 |
| CN(C)c1ncnc2sc(Nc3ccccc3)nc12 | 10 |
| CN(C)c1ncnc2sc(Nc3ccc(Cl)cc3)nc12 | 0 |
| CN1CCN(c2ncnc3sc(Nc4ccccc4)nc23)CC1 | 19 |
| Clc1ccc(Nc2nc3c(N4CCOCC4)ncnc3s2)cc1 | 0 |
| CCN1CCN(c2ncnc3sc(Nc4ccccc4)nc23)CC1 | 0 |
| Clc1ccc(Nc2nc3c(N4CCCCC4)ncnc3s2)cc1 | 22 |
| c1ccc(Nc2nc3c(N4CCNCC4)ncnc3s2)cc1 | 18 |

Source: ChEMBL document CHEMBL3085659, “Synthesis, antiproliferative and apoptosis-inducing activity of thiazolo[5,4-d]pyrimidines” (Eur J Med Chem, 2013)
